Source: patent US11912719B2, “Substituted isoquinolines as rock kinase inhibitors” (Cervello Therapeutics LLC, priority 2018, dated 2024)
Like-named read-outs stand apart in the source and are kept apart here.

Legend:
Type in all cases: biochemical
[1] = target: T1, human ROCK1 catalytic domain (Homo sapiens, UniProt Q13464); assay: fluorescence coupling (TR-FRET) enzymatic assay, ROCK1
T1 construct: GST; purchased Carna BioSciences 01-109
Protocol: (§1) Briefly, compounds of the present invention were solubilized in DMSO and a series of 12, three-fold serial dilutions were made for each compound in 2.5% DMSO. The initial starting concentration for the serial dilutions of each compound was 10 μM or 100 μM. Control samples lacking compound, ROCK enzyme or ATP also were prepared and processed in parallel with compound test samples.
The reaction mixtures were incubated at room temperature for one hour. After one hour, the reaction was stopped by the addition of a 10 solution of an Europium-labelled phospho-CREB (Ser133) antibody (Perkin Elmer, Catalog #TRF0200) in LANCE buffer supplemented with 20 mM EDTA. The stopped reaction mixtures were incubated at room temperature for 90 minutes. […] The ICso value for each compound was determined from each dose-response curve using GraphPad Prism 7 software with a sigmodial dose response.

[2] = target: T2, human ROCK2 enzyme kinase domain (Homo sapiens, UniProt O75116); assay: fluorescence coupling (TR-FRET) enzymatic assay, ROCK2; conditions: 4 nM enzyme, 50 nM Ulight-CREBTide, one hour room temperature
T2 construct: GST; purchased Carna BioSciences 01-110
T2 sequence (O75116 1-553): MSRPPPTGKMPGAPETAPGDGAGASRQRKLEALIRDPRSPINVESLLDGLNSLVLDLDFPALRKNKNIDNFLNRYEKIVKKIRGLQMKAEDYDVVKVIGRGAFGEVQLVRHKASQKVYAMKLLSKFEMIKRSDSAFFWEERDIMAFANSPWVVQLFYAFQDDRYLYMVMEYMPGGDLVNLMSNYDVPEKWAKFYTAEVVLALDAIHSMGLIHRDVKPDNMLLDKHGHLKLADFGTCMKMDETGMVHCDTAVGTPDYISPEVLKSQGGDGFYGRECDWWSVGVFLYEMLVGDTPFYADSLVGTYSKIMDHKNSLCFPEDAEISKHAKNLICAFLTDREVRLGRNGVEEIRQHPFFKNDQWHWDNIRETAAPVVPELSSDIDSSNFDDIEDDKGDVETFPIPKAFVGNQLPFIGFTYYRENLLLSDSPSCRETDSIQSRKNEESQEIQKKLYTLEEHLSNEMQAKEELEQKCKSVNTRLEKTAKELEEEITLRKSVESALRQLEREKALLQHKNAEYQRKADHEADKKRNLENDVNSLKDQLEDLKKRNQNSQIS
Protocol: (§2) Dose-response curves for compounds of the present invention were determined using a fluorescence coupling enzymatic assay using purified C-terminal truncated human ROCK1 catalytic domain (amino acids 1-477 of accession number NP_005397.1) fused to GST (Carna BioSciences, Catalog #01-109) and purified C-terminal truncated human ROCK2 enzyme kinase domain (amino acids 1-553 of accession number NP_004841.2) fused to GST BioSciences, Catalog #01-110). In addition, full length cGMP-dependent protein kinase 1 (PKG or PRKG1; amino acids 1-686 of accession number NP_006249.1) fused to GST (Carna BioSciences, Catalog #01-142), full length PKACα (PRKACA; amino acids 1-351 of accession number NP_002721.1) fused to GST (Carna BioSciences, Catalog #01-127), and C-terminal truncated human AKT1 catalytic domain (amino acids 104-480 of accession number NP_005154.1) fused to GST Biosciences, Catalog #01-101) were used as a control to measure any non-desired off-target kinase activity.
as §1
(§3) A 4 μL aliquot of each serial dilution of test compound diluted in H2O with 2.5% DMSO was added to a well containing 4 μL of 10 nM purified N-truncated ROCK1 (4 nM final concentration), 10 nM purified N-truncated ROCK2 enzyme (4 nM final concentration), 1.25 nM AKT1 (0.5 nM final concentration), 25 pM PKACA (10 pM final concentration) or 20 nM PKG (8 nM final concentration), in reaction buffer containing 50 mM Hepes, pH 7.5, 1 mM EGTA, 10 mM MgCl2, 2 mM DTT, and 0.01% Tween 20 (final concentration). To initiate the enzymatic reaction, 2 μL of a solution was added to each well to provide a final concentration of 50 nM Ulight-CREBTide peptide substrate (Perkin Elmer, Catalog #TRF0107) and 4 μM ATP for ROCK1 and AKT1 assays, […] for ROCK2 assays and 30 μM ATP for PKG assays, or 1 μM ATP for PKACA assays. The reaction mixtures were incubated at room temperature for one hour. After one hour, the reaction was stopped by the addition of a 10 solution of an Europium-labelled phospho-CREB (Ser133) antibody (Perkin Elmer, Catalog #TRF0200) in LANCE buffer supplemented with 20 mM EDTA. The stopped reaction mixtures were incubated at room temperature for 90 minutes. The TR-FRET 665/620 ratios were determined using a Clariostar monochromator plate reader instrument (BMG LabTech) in accordance with the manufacturer's instructions. The ICso value for each compound was determined from each dose-response curve using GraphPad Prism 7 software with a sigmodial dose response. Key: A is IC50≤100 nM; B is 100 nM<IC50<1000 nM; C is 1,000<IC50≤10,000 nM; D is IC50>10,000 nM

[3] = target: T3, cGMP-dependent protein kinase 1 (PKG or PRKG1) (Homo sapiens, UniProt Q13976); assay: fluorescence coupling (TR-FRET) enzymatic assay, PKG off-target control; conditions: 8 nM enzyme, 30 μM ATP, 50 nM Ulight-CREBTide, one hour room temperature
T3 construct: GST; purchased Carna BioSciences 01-142
T3 sequence (Q13976 1-686 isoform Q13976-2): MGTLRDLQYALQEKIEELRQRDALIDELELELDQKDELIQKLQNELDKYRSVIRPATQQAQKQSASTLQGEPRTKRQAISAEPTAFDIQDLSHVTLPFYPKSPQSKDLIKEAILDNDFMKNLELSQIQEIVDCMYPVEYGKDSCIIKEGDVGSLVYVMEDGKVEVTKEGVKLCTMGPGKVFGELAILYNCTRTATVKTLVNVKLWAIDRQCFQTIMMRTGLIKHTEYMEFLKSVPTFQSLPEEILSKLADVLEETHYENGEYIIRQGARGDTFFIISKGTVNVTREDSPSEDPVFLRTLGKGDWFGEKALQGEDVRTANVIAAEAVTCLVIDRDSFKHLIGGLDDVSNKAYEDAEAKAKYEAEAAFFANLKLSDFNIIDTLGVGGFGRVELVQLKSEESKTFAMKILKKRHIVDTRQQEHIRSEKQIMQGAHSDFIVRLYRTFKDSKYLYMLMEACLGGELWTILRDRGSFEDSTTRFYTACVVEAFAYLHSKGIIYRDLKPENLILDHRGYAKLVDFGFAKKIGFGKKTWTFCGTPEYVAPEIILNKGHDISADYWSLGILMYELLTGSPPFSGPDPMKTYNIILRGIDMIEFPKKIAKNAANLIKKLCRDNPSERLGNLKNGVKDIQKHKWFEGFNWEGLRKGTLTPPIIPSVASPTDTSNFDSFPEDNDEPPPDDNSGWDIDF
Protocol: as §2, §1, §3

[4] = target: T4, human AKT1 catalytic domain (Homo sapiens, UniProt P31749); assay: fluorescence coupling (TR-FRET) enzymatic assay, AKT1 off-target control; conditions: 0.5 nM enzyme, 4 μM ATP, 50 nM Ulight-CREBTide, one hour room temperature
T4 construct: GST; purchased Carna BioSciences 01-101
T4 sequence (P31749 104-480): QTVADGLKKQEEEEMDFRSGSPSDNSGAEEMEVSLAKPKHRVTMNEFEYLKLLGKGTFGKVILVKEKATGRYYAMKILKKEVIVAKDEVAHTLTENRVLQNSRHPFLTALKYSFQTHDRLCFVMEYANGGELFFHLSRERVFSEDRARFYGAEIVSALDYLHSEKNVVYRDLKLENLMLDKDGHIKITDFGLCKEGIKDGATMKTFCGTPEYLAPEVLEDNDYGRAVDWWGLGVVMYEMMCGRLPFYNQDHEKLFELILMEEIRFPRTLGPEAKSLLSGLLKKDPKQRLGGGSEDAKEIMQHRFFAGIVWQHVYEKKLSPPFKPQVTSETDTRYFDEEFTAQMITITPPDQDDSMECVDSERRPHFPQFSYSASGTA
Protocol: as §2, §1, §3

PKACα (PRKACA) = target: T5, PKACα (PRKACA) (Homo sapiens, UniProt P17612); assay: fluorescence coupling (TR-FRET) enzymatic assay, PKACA off-target control; conditions: 10 pM enzyme, 1 μM ATP, 50 nM Ulight-CREBTide, one hour room temperature
T5 construct: GST; purchased Carna BioSciences 01-127
Protocol: as §2, §1, §3

[5] = 4 nM enzyme, 4 μM ATP, 50 nM Ulight-CREBTide, one hour room temperature, read-out: ROCK1 IC50

T1 sequence (Q13464 1-477): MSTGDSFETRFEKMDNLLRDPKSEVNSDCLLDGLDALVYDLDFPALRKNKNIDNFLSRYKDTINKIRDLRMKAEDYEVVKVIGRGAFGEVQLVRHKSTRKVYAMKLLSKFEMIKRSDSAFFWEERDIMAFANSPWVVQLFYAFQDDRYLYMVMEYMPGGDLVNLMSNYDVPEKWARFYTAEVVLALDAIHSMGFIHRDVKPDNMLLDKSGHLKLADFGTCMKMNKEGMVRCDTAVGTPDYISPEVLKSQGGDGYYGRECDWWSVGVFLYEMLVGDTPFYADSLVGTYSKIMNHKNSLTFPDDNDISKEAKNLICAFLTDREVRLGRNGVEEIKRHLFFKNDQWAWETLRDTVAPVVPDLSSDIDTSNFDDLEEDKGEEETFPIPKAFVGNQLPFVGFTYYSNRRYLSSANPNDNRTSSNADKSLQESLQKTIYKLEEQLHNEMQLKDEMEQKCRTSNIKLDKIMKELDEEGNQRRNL

Row | Compound | IC50 [1, 5] [µM] | IC50 [2] [µM] | IC50 [3] [µM] | IC50 [4] [µM] | IC50 (PKACα (PRKACA)) [µM] | IC50 [1] [µM]
1 | Cc1cccc2c1CCN2S(=O)(=O)c1cccc2c(=O)[nH]ccc12 [Example 1, 5-((4-Methylindolin-1-yl)sulfonyl)isoquinolin-1 (2H)-one] | 1 to 10 | 1 to 10 | > 10 | > 10 | > 10 | –
2 | O=c1[nH]ccc2c(S(=O)(=O)N3CCc4cc(O)ccc43)cccc12 [Example 2, 5-((5-Hydroxyindolin-1-yl)sulfonyl)isoquinolin-1 (2H)-one] | > 10 | > 10 | > 10 | > 10 | > 10 | –
3 | O=c1[nH]ccc2c(S(=O)(=O)N3CCc4ccccc43)cccc12 [Example 3, 5-(Indolin-1-ylsulfonyl)isoquinolin-1 (2H)-one] | 1 to 10 | 1 to 10 | > 10 | > 10 | > 10 | –
4 | O=c1[nH]ccc2c(S(=O)(=O)N3CCc4ccc(Cl)cc43)cccc12 [Example 4, 5-((6-Chloroindolin-1-yl)sulfonyl)isoquinolin-1 (2H)-one] | 0.1 to 1 | 0.1 to 1 | > 10 | > 10 | > 10 | –
5 | O=c1[nH]ccc2c(S(=O)(=O)N3CCc4ccc(F)cc43)cccc12 [Example 5, 5-((6-Fluoroindolin-1-yl)sulfonyl)isoquinolin-1 (2H)-one] | 1 to 10 | 1 to 10 | > 10 | > 10 | > 10 | –
6 | Cc1ccc2c(c1)N(S(=O)(=O)c1cccc3c(=O)[nH]ccc13)CC2 [Example 6, 5-((6-Methylindolin-1-yl)sulfonyl)isoquinolin-1 (2H)-one] | 1 to 10 | 0.1 to 1 | > 10 | > 10 | > 10 | –
7 | O=c1[nH]ccc2c(S(=O)(=O)N3CCc4c(CO)cccc43)cccc12 [Example 7, 5-((4-(Hydroxymethyl)indolin-1-yl)sulfonyl)isoquinolin-1 (2H)-one] | – | 1 to 10 | > 10 | > 10 | > 10 | 1 to 10
8 | O=c1[nH]ccc2c(S(=O)(=O)N3CCc4c3cccc4C(F)(F)F)cccc12 [Example 8, 5-((4-(Trifluoromethyl)indolin-1-yl)sulfonyl)isoquinolin-1 (2H)-one] | > 10 | > 10 | > 10 | > 10 | > 10 | –
9 | O=c1[nH]ccc2c(S(=O)(=O)N3CCc4c(C5CC5)cccc43)cccc12 [Example 9, 5-((4-Cyclopropylindolin-1-yl)sulfonyl)isoquinolin-1 (2H)-one] | > 10 | > 10 | > 10 | > 10 | > 10 | –
10 | CCc1cccc2c1CCN2S(=O)(=O)c1cccc2c(=O)[nH]ccc12 [Example 10, 5-((4-ethylindolin-1-yl)sulfonyl)isoquinolin-1 (2H)-one] | > 10 | > 10 | > 10 | > 10 | > 10 | –
11 | CC(O)c1cccc2c1CCN2S(=O)(=O)c1cccc2c(=O)[nH]ccc12 (centres unmarked) [Example 11, 5-((4-(1-Hydroxyethyl)indolin-1-yl)sulfonyl)isoquinolin-1 (2H)-one] | 1 to 10 | 1 to 10 | > 10 | > 10 | > 10 | –
12 | CC1(C)CN(S(=O)(=O)c2cccc3c(=O)[nH]ccc23)c2ccccc21 [Example 12, 5-((3,3-Dimethylindolin-1-yl)sulfonyl)isoquinolin-1 (2H)-one] | > 10 | > 10 | > 10 | > 10 | > 10 | –
13 | CC1CN(S(=O)(=O)c2cccc3c(=O)[nH]ccc23)c2ccccc21 (centres unmarked) [Example 13, 5-((3-Methylindolin-1-yl)sulfonyl)isoquinolin-1 (2H)-one] | > 10 | > 10 | > 10 | > 10 | > 10 | –
14 | CC(C)c1cccc2c1CCN2S(=O)(=O)c1cccc2c(=O)[nH]ccc12 [Example 14, 5-((4-Isopropylindolin-1-yl)sulfonyl)isoquinolin-1 (2H)-one] | > 10 | > 10 | > 10 | > 10 | > 10 | –
15 | N#Cc1ccc2c(c1)N(S(=O)(=O)c1cccc3c(=O)[nH]ccc13)CC2 [Example 15, 1-((1-Oxo-1,2-dihydroisoquinolin-5-yl)sulfonyl)indoline-6-carbonitrile] | 0.1 to 1 | < 0.1 | > 10 | > 10 | > 10 | –
16 | O=c1[nH]ccc2c(S(=O)(=O)N3CCc4c(Cl)cc(Cl)cc43)cccc12 [Example 16, 5-((4,6-Dichloroindolin-1-yl)sulfonyl)isoquinolin-1 (2H)-one] | 1 to 10 | 1 to 10 | > 10 | > 10 | > 10 | –
17 | N#Cc1cc(C2CC2)c2c(c1)N(S(=O)(=O)c1cccc3c(=O)[nH]ccc13)CC2 [Example 17] | 0.1 to 1 | 0.1 to 1 | > 10 | > 10 | > 10 | –
18 | Cc1cc(C#N)cc2c1CCN2S(=O)(=O)c1cccc2c(=O)[nH]ccc12 [Example 18] | 0.1 to 1 | 0.1 to 1 | > 10 | > 10 | > 10 | –
19 | O=c1[nH]ccc2c(S(=O)(=O)N3CCc4ccc(Cl)cc43)cc(Cl)cc12 [Example 19, 7-Chloro-5-((6-chloroindolin-1-yl)sulfonyl)isoquinolin-1 (2H)-one] | > 10 | > 10 | > 10 | > 10 | > 10 | –
